These results are taken from patent publication US12202818B2, “Compounds and methods for CD73 modulation and indications therefor” (Opna Bio SA, priority 2020, dated 2025).

One assay addresses T1, human CD73 (Homo sapiens, UniProt P21589).
T1 construct: expressed in transfected cells
T1 sequence (P21589 27-549): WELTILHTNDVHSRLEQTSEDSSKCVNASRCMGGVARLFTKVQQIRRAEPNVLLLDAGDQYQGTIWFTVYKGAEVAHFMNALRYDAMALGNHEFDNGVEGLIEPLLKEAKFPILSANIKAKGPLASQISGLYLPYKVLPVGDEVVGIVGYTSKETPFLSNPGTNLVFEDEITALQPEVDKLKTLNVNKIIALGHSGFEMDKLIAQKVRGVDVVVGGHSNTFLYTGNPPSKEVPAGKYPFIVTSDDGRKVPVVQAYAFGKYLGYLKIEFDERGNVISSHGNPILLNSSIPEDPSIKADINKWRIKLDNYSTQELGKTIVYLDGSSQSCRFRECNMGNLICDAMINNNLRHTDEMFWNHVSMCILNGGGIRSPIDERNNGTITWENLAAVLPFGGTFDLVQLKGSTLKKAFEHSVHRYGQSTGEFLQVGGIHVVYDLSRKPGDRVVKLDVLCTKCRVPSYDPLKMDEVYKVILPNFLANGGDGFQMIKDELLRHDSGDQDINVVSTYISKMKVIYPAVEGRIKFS
Nature of the assay: Inhibitor activity against CD73 in cell based assay (CD73 expressing CHO-K1 cells). The settings on record: CHO-K1 cells expressing human CD73, 150 μM AMP, 4 hours of incubation; read-out: CHO-K1 CELL_VARIANT: CD73 IC50. The method in brief: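 Stable human CD73 CHO-K1 cells, 1×10^4/well, exposed to an 8-point 1:3 compound series (top 10 μM, 0.2% DMSO) plus 150 μM AMP for 4 h. Remaining AMP in the supernatant was read by CellTiter-Glo 2.0 luminescence with 1 μM ATP after 30 min at room temperature. IC50 came from nonlinear regression of % inhibition against cell and media-only controls.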

Assay [1] deals with T2, Human CD73 (amino acid residues 27-549) (Homo sapiens, UniProt P21589).
T2 construct: Human CD73 (amino acid residues 27-549); His tag (N); made in house; host or cells: E. coli
T2 sequence (P21589 27-549): T1 sequence (P21589 27-549)
The experiment in a line: CD73 enzymatic assay (luciferase-based indirect assay, CellTiter-Glo). The format is biochemical. The settings on record: 0.4 nM CD73, 150 μM AMP, 1 hour at room temperature. The method in brief: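 N-His human CD73 (27-549) expressed in E. coli, 0.4 nM, incubated with 150 μM AMP and compound in 50 mM HEPES pH 7.4, 0.01% Tween-20, 1 h at RT. Remaining AMP read via CellTiter-Glo luminescence with 1 μM ATP after 30 min; IC50 from nonlinear regression of % inhibition.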
For orientation: In ATP-based viability assays light output follows the ATP content of the culture.

Usually IC50 stands for the midpoint of a concentration-inhibition curve. With `O=C(C1CC1)N1CCC(c2ccnc(O[C@@H]3CCN(c4cn[nH]c(=O)c4Cl)C3)c2)CC1` [P-0058, (R)-4-chloro-5-(3-((4-(1-(cyclopropanecarbonyl)piperidin-4-yl)pyridin-2-yl)oxy)pyrrolidin-1-yl)pyridazin-3(2H)-one], the IC50 (at human CD73; in assay [1]) was 0.001 to 10 µM each time.

As to `NC1CCC(c2ccnc(O[C@@H]3CCN(c4cn[nH]c(=O)c4Cl)C3)c2)CC1` (stereo partly drawn) [P-0059, (R)-5-(3-((4-(4-aminocyclohexyl)pyridin-2-yl)oxy)pyrrolidin-1-yl)-4-chloropyridazin-3(2H)-one], the IC50 (on human CD73; in assay [1]) was 0.001 to 10 µM each time.

Take `CC(=O)C1CCC(c2ccnc(O[C@@H]3CCN(c4cn[nH]c(=O)c4Cl)C3)c2)CC1` (stereo partly drawn) [P-0060, (R)-5-(3-((4-(4-acetylcyclohexyl)pyridin-2-yl)oxy)pyrrolidin-1-yl)-4-chloropyridazin-3(2H)-one]: the IC50 (on human CD73; in assay [1]) was 0.001 to 10 µM each time.

Regarding `Cc1nn(CC2COC2)c(C)c1-c1cc(O[C@@H]2CCN(c3cn[nH]c(=O)c3Cl)C2)ncn1` [P-0061, (R)-4-chloro-5-(3-((6-(3,5-dimethyl-1-(oxetan-3-ylmethyl)-1H-pyrazol-4-yl)pyrimidin-4-yl)oxy)pyrrolidin-1-yl)pyridazin-3(2H)-one], the IC50 (at human CD73; in assay [1]) was 0.001 to 10 µM in each case.

In the case of `CCn1nc(C)c(-c2ccnc(O[C@@H]3CCN(c4cnn(CCO)c(=O)c4Cl)C3)c2)c1C` [P-0062, (R)-4-chloro-5-(3-((4-(1-ethyl-3,5-dimethyl-1H-pyrazol-4-yl)pyridin-2-yl)oxy)pyrrolidin-1-yl)-2-(2-hydroxyethyl)pyridazin-3(2H)-one], the IC50 (on human CD73; in assay [1]) was 0.001 to 10 µM in each case.

In the case of `Cc1noc(C)c1-c1ccnc(O[C@@H]2CCN(c3cn[nH]c(=O)c3C#N)C2)c1` [P-0063, (R)-5-(3-((4-(3,5-dimethylisoxazol-4-yl)pyridin-2-yl)oxy)pyrrolidin-1-yl)-3-oxo-2,3-dihydropyridazine-4-carbonitrile], the IC50 (on human CD73; in assay [1]) was 0.001 to 10 µM in each case.

On to `Cc1nn(CC(O)CCCl)c(C)c1-c1ccnc(O[C@@H]2CCN(c3cnn(CCO)c(=O)c3Cl)C2)c1` (stereo partly drawn) [P-0064, 4-chloro-5-((3R)-3-((4-(1-(4-chloro-2-hydroxybutyl)-3,5-dimethyl-1H-pyrazol-4-yl)pyridin-2-yl)oxy)pyrrolidin-1-yl)-2-(2-hydroxyethyl)pyridazin-3(2H)-one], for which the IC50 (on human CD73; in assay [1]) was 0.001 to 10 µM throughout.

Take `Cc1nn(CC2(O)COC2)c(C)c1-c1ccnc(O[C@@H]2CCN(c3cn[nH]c(=O)c3Cl)C2)c1` [P-0065, (R)-4-chloro-5-(3-((4-(1-((3-hydroxyoxetan-3-yl)methyl)-3,5-dimethyl-1H-pyrazol-4-yl)pyridin-2-yl)oxy)pyrrolidin-1-yl)pyridazin-3(2H)-one]: the IC50 (at human CD73; in assay [1]) was 0.001 to 10 µM throughout.

`Cc1noc(C)c1-c1ccnc(O[C@@H]2CCN(c3cn[nH]c(=O)c3Br)C2)c1` [P-0066, (R)-4-bromo-5-(3-((4-(3,5-dimethylisoxazol-4-yl)pyridin-2-yl)oxy)pyrrolidin-1-yl)pyridazin-3(2H)-one]: the IC50 (at human CD73; in assay [1]) was 0.001 to 10 µM throughout.

`NC1CC=C(c2ccnc(O[C@@H]3CCN(c4cn[nH]c(=O)c4Cl)C3)c2)CC1` (stereo partly drawn) [P-0067, 5-((3R)-3-((4-(4-aminocyclohex-1-en-1-yl)pyridin-2-yl)oxy)pyrrolidin-1-yl)-4-chloropyridazin-3(2H)-one]: the IC50 (on human CD73; in assay [1]) was 0.001 to 10 µM in each case.

As to `CC(=O)C1CC=C(c2ccnc(O[C@@H]3CCN(c4cn[nH]c(=O)c4Cl)C3)c2)CC1` (stereo partly drawn) [P-0068, 5-((3R)-3-((4-(4-acetylcyclohex-1-en-1-yl)pyridin-2-yl)oxy)pyrrolidin-1-yl)-4-chloropyridazin-3(2H)-one], the IC50 (at human CD73; in assay [1]) was 0.001 to 10 µM each time.

On to `Cc1nn(C(CO)CCl)c(C)c1-c1ccnc(O[C@@H]2CCN(c3cn[nH]c(=O)c3Cl)C2)c1` (stereo partly drawn) [P-0069, 4-chloro-5-((3R)-3-((4-(1-(1-chloro-3-hydroxypropan-2-yl)-3,5-dimethyl-1H-pyrazol-4-yl)pyridin-2-yl)oxy)pyrrolidin-1-yl)pyridazin-3(2H)-one], for which the IC50 (at human CD73; in assay [1]) was 0.001 to 10 µM each time.

With `Cc1nn(C2COC2)c(C)c1-c1ccnc(O[C@@H]2CCN(c3cn[nH]c(=O)c3Cl)C2)c1` [P-0070, (R)-4-chloro-5-(3-((4-(3,5-dimethyl-1-(oxetan-3-yl)-1H-pyrazol-4-yl)pyridin-2-yl)oxy)pyrrolidin-1-yl)pyridazin-3(2H)-one], the IC50 (on human CD73; in assay [1]) was 0.001 to 10 µM in each case.

`O=c1[nH]ncc(N2CC[C@@H](Oc3cc(C4CCNCC4)ccn3)C2)c1Cl` [P-0071, (R)-4-chloro-5-(3-((4-(piperidin-4-yl)pyridin-2-yl)oxy)pyrrolidin-1-yl)pyridazin-3(2H)-one]: the concentration for half-maximal inhibition (IC50) (on human CD73; in assay [1]) was 0.001 to 10 µM throughout.

Take `O=c1[nH]ncc(N2CC[C@@H](Oc3cc(C4CCOCC4)ccn3)C2)c1Cl` [P-0072, (R)-4-chloro-5-(3-((4-(tetrahydro-2H-pyran-4-yl)pyridin-2-yl)oxy)pyrrolidin-1-yl)pyridazin-3(2H)-one]: the IC50 (on human CD73; in assay [1]) was 0.001 to 10 µM each time.

Turning to `O=c1[nH]ncc(N2CC[C@@H](Oc3cc(C4CCCC4)ccn3)C2)c1Cl` [P-0073, (R)-4-chloro-5-(3-((4-cyclopentylpyridin-2-yl)oxy)pyrrolidin-1-yl)pyridazin-3(2H)-one], the IC50 (at human CD73; in assay [1]) was 0.001 to 10 µM throughout.

For `N#CC1CCN(c2ccnc(O[C@@H]3CCN(c4cn[nH]c(=O)c4Cl)C3)c2)CC1` [P-0074, (R)-1-(2-((1-(5-chloro-6-oxo-1,6-dihydropyridazin-4-yl)pyrrolidin-3-yl)oxy)pyridin-4-yl)piperidine-4-carbonitrile], the IC50 (at human CD73; in assay [1]) was 0.001 to 10 µM throughout.

With `O=c1[nH]ncc(N2CC[C@@H](Oc3cc(C4=CCNCC4)ccn3)C2)c1Cl` [P-0075, (R)-4-chloro-5-(3-((1′,2′,3′,6′-tetrahydro-[4,4′-bipyridin]-2-yl)oxy)pyrrolidin-1-yl)pyridazin-3(2H)-one], the IC50 (at human CD73; in assay [1]) was 0.001 to 10 µM in each case.

As to `Cc1nn(CCO)c(C)c1-c1ccnc(O[C@@H]2CCN(c3cn[nH]c(=O)c3Cl)C2)c1` [P-0076, (R)-4-chloro-5-(3-((4-(1-(2-hydroxyethyl)-3,5-dimethyl-1H-pyrazol-4-yl)pyridin-2-yl)oxy)pyrrolidin-1-yl)pyridazin-3(2H)-one], the concentration for half-maximal inhibition (IC50) (at human CD73; in assay [1]) was 0.001 to 10 µM each time.

As to `CCn1nc(C)c(-c2ccnc(O[C@@H]3CCN(c4cn[nH]c(=O)c4Cl)C3)c2)c1C` [P-0077, (R)-4-chloro-5-(3-((4-(1-ethyl-3,5-dimethyl-1H-pyrazol-4-yl)pyridin-2-yl)oxy)pyrrolidin-1-yl)pyridazin-3(2H)-one], the IC50 (at human CD73; in assay [1]) was 0.001 to 10 µM throughout.

Turning to `O=c1[nH]ncc(N2CC[C@@H](Oc3cc(C4=CCOCC4)ccn3)C2)c1Cl` [P-0078, (R)-4-chloro-5-(3-((4-(3,6-dihydro-2H-pyran-4-yl)pyridin-2-yl)oxy)pyrrolidin-1-yl)pyridazin-3(2H)-one], the IC50 (at human CD73; in assay [1]) was 0.001 to 10 µM each time.

As for `CC1(C)CCCN1c1ccnc(O[C@@H]2CCN(c3cn[nH]c(=O)c3Cl)C2)c1` [P-0079, (R)-4-chloro-5-(3-((4-(2,2-dimethylpyrrolidin-1-yl)pyridin-2-yl)oxy)pyrrolidin-1-yl)pyridazin-3(2H)-one], the IC50 (at human CD73; in assay [1]) was 0.001 to 10 µM throughout.

For `CC1(C)CNCCN1c1ccnc(O[C@@H]2CCN(c3cn[nH]c(=O)c3Cl)C2)c1` [P-0080, (R)-4-chloro-5-(3-((4-(2,2-dimethylpiperazin-1-yl)pyridin-2-yl)oxy)pyrrolidin-1-yl)pyridazin-3(2H)-one], the IC50 on human CD73 lay in the range of 10 to 100 µM; in assay [1], 0.001 to 10 µM.

With `Cc1cc(S(C)(=O)=O)ccc1-c1ccnc(O[C@@H]2CCN(c3cn[nH]c(=O)c3Cl)C2)c1` [P-0081, (R)-4-chloro-5-(3-((4-(2-methyl-4-(methylsulfonyl)phenyl)pyridin-2-yl)oxy)pyrrolidin-1-yl)pyridazin-3(2H)-one], the 50% inhibitory concentration (IC50) (on human CD73; in assay [1]) was 0.001 to 10 µM each time.

Regarding `O=c1[nH]ncc(N2CC[C@@H](Oc3cc(N4CCC5(CC4)COC5)ccn3)C2)c1Cl` [P-0082, (R)-5-(3-((4-(2-oxa-7-azaspiro[3.5]nonan-7-yl)pyridin-2-yl)oxy)pyrrolidin-1-yl)-4-chloropyridazin-3(2H)-one], the IC50 (at human CD73; in assay [1]) was 0.001 to 10 µM throughout.
